Test results published in patent publication US20080044428A1, “Glycosylphosphatidylinositol Glycan Signalling Via Integrins Functioning as Glycan Specific Receptors” (THE WALTER AND ELIZA HALL INSTITUTE OF MEDICAL RES, priority 2004, published 2008).

How the values were obtained:
[1] = system: αMβ2-integrin, also known as CR3 or Mac-1; assay: FACS binding of fluoresceinated conjugates to CHO cells transfected with αMβ2-integrin; details: FACS analysis, CHO-Mac1 cells
Text: (§1) Sham conjugation procedures were also followed substituting cysteine for glycan.

[2] = system: sham-transfected CHO cells (CHO-Neo); assay: FACS binding of fluoresceinated conjugates to sham-transfected CHO cells; details: FACS analysis
Text: as §1

αMβ2-integrin, also known as CR3 or Mac-1, sequence (P05107 23-769, other chains not shown): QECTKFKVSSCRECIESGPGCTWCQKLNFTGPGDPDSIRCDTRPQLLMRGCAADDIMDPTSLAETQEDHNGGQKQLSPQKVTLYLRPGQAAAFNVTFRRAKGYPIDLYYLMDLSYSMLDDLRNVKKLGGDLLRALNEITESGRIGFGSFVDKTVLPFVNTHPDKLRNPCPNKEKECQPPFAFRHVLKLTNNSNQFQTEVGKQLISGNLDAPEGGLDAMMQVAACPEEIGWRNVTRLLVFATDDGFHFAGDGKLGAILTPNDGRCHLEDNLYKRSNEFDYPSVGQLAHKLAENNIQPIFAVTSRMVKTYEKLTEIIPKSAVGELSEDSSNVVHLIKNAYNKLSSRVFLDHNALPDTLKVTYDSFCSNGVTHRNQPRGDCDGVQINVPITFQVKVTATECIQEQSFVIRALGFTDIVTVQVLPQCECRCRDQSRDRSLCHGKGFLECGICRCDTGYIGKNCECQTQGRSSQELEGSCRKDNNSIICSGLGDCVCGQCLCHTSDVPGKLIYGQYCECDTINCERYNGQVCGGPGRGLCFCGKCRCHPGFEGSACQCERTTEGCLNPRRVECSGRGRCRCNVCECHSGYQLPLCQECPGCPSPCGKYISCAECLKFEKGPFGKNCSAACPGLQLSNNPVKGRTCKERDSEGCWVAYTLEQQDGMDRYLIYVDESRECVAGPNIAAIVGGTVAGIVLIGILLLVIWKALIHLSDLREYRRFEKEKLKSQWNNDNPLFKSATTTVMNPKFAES

fluoresceinated BSA-cysteine: sham conjugate of BSA carrier protein substituting cysteine for glycan, fluoresceinated
binding to CHO cells transfected with αMβ2-integrin [1]: 0.69% | binding to sham-transfected CHO cells (CHO-Neo) [2]: 0.4%
